Experimental data from patent publication US11986542B2, “Composition for enhancing hair fiber properties” (The Procter & Gamble Company, priority 2016, dated 2024).

Key:
[1] = Log P (octanol-water partition coefficient)
Excerpt: “Log P” means octanol-water partition coefficient and is a physical property that describes a chemical's lipophilic and hydrophophilic characteristics. Log P is the logarithm of the ratio of a chemical's concentration in the octanol phase to its concentration in the aqueous phase of a two-phase system at equilibrium. The partition coefficient is a ratio of concentrations of un-ionized compound between the two solutions. Log P=Log 10 (partition coefficient). Partition coefficient=[organic]/[aqueous], where [organic] is the concentration of the compound of interest in the organic solvent (e.g., octanol), and [aqueous] is the concentration of the compound of interest in the water phase.

[2] = Combing force for dry hair, aqueous/ethanol leave-on treatment; conditions: Table 2/FIG. 2; physically damaged virgin hair; aqueous/ethanol leave-on formulation, 2.5% total conditioning agent
Excerpt: (§1) This double combing apparatus is attached to an Instron Model 5564. The switch is combed 5 times with a fine-tooth comb and hanged onto the Instron load cell. Then, the hair switch is placed in the double comb apparatus. The Instron pulls the hair vertically at a rate of 10 mm/min until the hair switch clears the final comb. The peak force as the switch passes through the top comb is reported.

[3] = Combing force after leave-on hair treatment using neat material; conditions: 0.4 ml neat material on 4 g switch, average of three switches; for Combing force, 1 Wash (gf): after 1 clarifying shampoo wash; for Combing force, 5 Washes (gf): after 5 clarifying shampoo washes
Excerpt: as §1
The treatment is repeated to two additional switches. The treated hair switches are allowed to rest for 24 hours under controlled temperature and relative humidity conditions (27° C. and 50% RH). After this time period, each hair switch is washed with a clarifying shampoo (see shampoo washing protocol below) and allowed to air dry for 24 hours under controlled temperature and relative humidity conditions (27° C. and 50% RH). The combing force is measured for each switch and an average for the three switches is calculated. […] Linoleic acid • b.

[4] = Combing force for dry hair, aqueous/ethanol treatment; conditions: Table 1/FIG. 1; moderately oxidatively-damaged hair; aqueous/ethanol formulation, 2.5% total conditioning agent; peak force
Excerpt: A moderately oxidatively-damaged hair switch or physically damaged virgin hair switch (with weight of 4 gram and length of 8 inches) is placed in an apparatus containing two combs separated by a vertical distance of 6 inches. This double combing apparatus is attached to an Instron Model 5564. The switch is combed 5 times with a fine-tooth comb and hanged onto the Instron load cell. Then, the hair switch is placed in the double comb apparatus. The Instron pulls the hair vertically at a rate of 10 mm/min until the hair switch clears the final comb. The peak force as the switch passes through the top comb is reported. […] EtOH/H2O Leave-on Treatments Single material mixtures: 500 mg of a lipid or a lipid enhancing agent is weighed into a 20 mL vial. 19.5 g of 50/50(v/v) ethanol water mixture is then added to the vial and capped. The mixture is then agitated for 30 seconds. Shampoo Washing Protocol: An amount of 0.10 g of clarifying shampoo per gram of hair is spread via a syringe onto separate hair switch. Each application consists of adding shampoo to the hair, milking for 30 seconds followed by rinsing for 30 seconds. Shampoo is then reapplied (0.[…]), milked for 30 seconds and rinsed for 30 seconds. Leave-on Treatments with Aqueous/Ethanolic Lipid Compositions a. […] The combing force is measured for each switch and an average for the three switches is calculated. […]

## CCCCCC/C=C\CCCCCCCC(=O)O [Palmitoleic Acid]
[1]; octanol/water
  logP: 6.6
[2]
  Combing Force (gf): 76 gf

## CCCCCCCC/C=C\CCCCCCCCCCCC(=O)O [Erucic acid, reference compound]
[1]; octanol/water
  logP: 9

## CCCCCCCCCCCCCCCCCC(=O)O [Stearic Acid, reference compound]
[1]; octanol/water
  logP: 8

## CCCCCCCC/C=C\CCCCCCCC(=O)O [Oleic acid]
[3]
  Combing force, 1 Wash (gf): 24 gf
  Combing force, 5 Washes (gf): 58 gf
[4]
  Combing Force (gf): 161 gf
[1]; octanol/water
  logP: 7

## Propyleneglycol monooleate [reference compound]
[1]; Table 3
  logP: 7.5

## CCCCCCCC/C=C\CCCCCCCCO [Oleyl Alcohol]
[1]; octanol/water
  logP: 7
[2]
  Combing Force (gf): 246 gf

## CCCCCCCC/C=C\CCCCCCCC(=O)OCC(O)CO (stereo not drawn) [Glyceryl alpha-monooleate]
[4]
  Combing Force (gf): 157 gf
[1]; octanol/water
  logP: 6.3
[2]
  Combing Force (gf): 268 gf

## CCCCC/C=C\C/C=C\CCCCCCCC(=O)O [Linoleic Acid, reference compound]
[3]
  Combing force, 1 Wash (gf): 27 gf
  Combing force, 5 Washes (gf): 96 gf
[1]; octanol/water
  logP: 6.4

## CCCCCCCC/C=C\CCCCCCCC(=O)OCCO [Ethyleneglycol monooleate]
[1]; octanol/water
  logP: 6.9

## CCCCCCCC/C=C\CCCCCCCC(=O)OC [Methyl Oleate, reference compound]
[1]; octanol/water
  logP: 8
